Here are results for ten compounds from patent US20240270821A1, “GIP/GLP1/GCG TRI-RECEPTOR AGONISTS AND USES THEREOF” (priority 2023, published 2024).

Read-outs that look alike come from different tables or passages of the source. Starred links: 1 amine or outer side, 2 acyl side, 3 side chain; linkers in the order of their positions; H or OH if unused. Non-standard residues stand in square brackets, D forms with d. Groups on a side chain read outwards from the residue. *: point of attachment. C18 diacid = O=C(O)CCCCCCCCCCCCCCCCC(=O)*; αMePhe(2-F) = C[C@](N)(Cc1ccccc1F)C(=O)O; γGlu = O=C(O)[C@H](CCC(=O)[*:2])N[*:1]; αMe4Pal = C[C@](N)(Cc1ccncc1)C(=O)O; αMeY = C[C@](N)(Cc1ccc(O)cc1)C(=O)O; 4Pal = N[C@@H](Cc1ccncc1)C(=O)O; αMeL = CC(C)C[C@](C)(N)C(=O)O; αMeS = C[C@](N)(CO)C(=O)O; Orn = NCCC[C@H](N)C(=O)O; AEEA = NCCOCCOCC(=O)O; Aib = CC(C)(N)C(=O)O

In series [1] the target is T1, hGIPR (Homo sapiens, UniProt P48546).
T1 sequence (P48546 22-466): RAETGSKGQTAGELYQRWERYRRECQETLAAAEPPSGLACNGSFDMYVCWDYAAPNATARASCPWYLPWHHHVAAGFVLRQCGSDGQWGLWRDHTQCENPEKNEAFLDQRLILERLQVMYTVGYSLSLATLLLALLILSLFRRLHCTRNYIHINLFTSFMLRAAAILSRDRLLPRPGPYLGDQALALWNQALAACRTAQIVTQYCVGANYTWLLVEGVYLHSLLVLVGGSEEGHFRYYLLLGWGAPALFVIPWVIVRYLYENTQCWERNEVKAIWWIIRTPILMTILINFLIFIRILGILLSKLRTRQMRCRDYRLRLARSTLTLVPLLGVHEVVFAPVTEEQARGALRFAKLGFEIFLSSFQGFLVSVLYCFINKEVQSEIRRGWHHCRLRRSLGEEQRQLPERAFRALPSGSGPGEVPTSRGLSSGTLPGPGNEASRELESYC
Kind of series: Functional cAMP activation in the presence of 0.1% casein (no HSA). It counts as cell-based. The conditions noted are these: read-out: Relative cAMP EC50, hGIPR.

The target in series [2] is T2, hGLP-1R (Homo sapiens, UniProt P43220). Kind of series: Functional cAMP activity in the presence of 1% HSA. The class given is cell-based. The conditions noted are these: read-out: cAMP Rel EC50, hGLP-1R.
T2 sequence (P43220 24-463): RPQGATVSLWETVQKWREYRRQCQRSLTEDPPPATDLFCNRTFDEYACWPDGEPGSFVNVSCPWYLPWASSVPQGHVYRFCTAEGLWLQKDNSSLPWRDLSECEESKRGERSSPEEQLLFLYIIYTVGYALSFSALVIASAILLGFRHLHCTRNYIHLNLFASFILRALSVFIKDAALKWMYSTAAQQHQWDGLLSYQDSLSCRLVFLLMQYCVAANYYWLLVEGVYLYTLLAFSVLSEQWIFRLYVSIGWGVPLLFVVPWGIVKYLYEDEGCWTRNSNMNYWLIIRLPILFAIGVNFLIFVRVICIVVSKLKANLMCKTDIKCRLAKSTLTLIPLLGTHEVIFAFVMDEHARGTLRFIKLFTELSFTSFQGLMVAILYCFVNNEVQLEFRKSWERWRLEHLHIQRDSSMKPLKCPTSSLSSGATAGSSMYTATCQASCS
Series [3] concerns the target T2, hGLP-1R. Kind of series: Functional cAMP activation in the presence of 0.1% casein (no HSA). The class given is cell-based. The conditions noted are these: read-out: Relative cAMP EC50, hGLP-1R.
Series [4] concerns Intestinal organoid from Göttingen minipig jejunum tissue, 2D monolayer. Kind of series: Cell based in vitro permeability (Papp) assay. It counts as in vitro ADME. As for the experimental part: Intestinal organoid from Göttingen minipig jejunum tissue and its 2D monolayer are generated using the protocol previously described ([…]-Thiele, […].; Wells, J. M., Optimized procedures for generating an enhanced, near physiological 2D culture system from porcine intestinal organoids. […] After 7 days of culture, organoids are dissociated into single cells by TrypLE (GIbco), and the single cell suspension is added in 24-well transparent transwell inserts (0.3 cm^2, Falcon, BD). […] Samples from the basal compartment are collected at 20 min in the presence of C10. Peptide concentrations in the apical and basal compartments are measured by LC/MS, and the apparent permeability coefficient (Papp) is calculated as previously described (Twarog, C.; Liu, K.; O'Brien, P. J.; Dawson, […] head-to-head Caco-2 assay comparison of the mechanisms of action of the intestinal permeation enhancers: SNAC and sodium caprate (C10).

Series [5] has as its target T1, hGIPR. Kind of series: Functional cAMP activity in the presence of 1% HSA. To be noted: read-out: cAMP Rel EC50, hGIPR. The class given is cell-based.
Another series deals with hGcgR (Homo sapiens, UniProt P47871). Kind of series: Functional cAMP activation in the presence of 0.1% casein (no HSA). To be noted: read-out: Relative cAMP EC50, hGcgR. The class given is cell-based.
Sequence of hGcgR (P47871 26-477): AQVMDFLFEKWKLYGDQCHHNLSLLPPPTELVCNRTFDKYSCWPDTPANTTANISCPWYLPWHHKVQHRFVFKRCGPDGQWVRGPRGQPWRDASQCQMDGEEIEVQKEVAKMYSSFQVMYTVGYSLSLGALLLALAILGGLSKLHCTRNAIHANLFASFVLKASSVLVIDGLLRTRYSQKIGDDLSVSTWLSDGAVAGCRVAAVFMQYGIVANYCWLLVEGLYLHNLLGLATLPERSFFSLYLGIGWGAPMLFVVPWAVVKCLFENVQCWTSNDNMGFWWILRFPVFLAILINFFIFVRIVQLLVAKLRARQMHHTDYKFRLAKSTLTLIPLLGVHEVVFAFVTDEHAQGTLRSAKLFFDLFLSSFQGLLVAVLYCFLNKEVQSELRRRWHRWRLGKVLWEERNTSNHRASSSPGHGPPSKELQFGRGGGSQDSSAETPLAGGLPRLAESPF
In a further series the target is human GcgR (Homo sapiens, UniProt P47871). Kind of series: Functional cAMP activity in the presence of 1% HSA. The conditions noted are these: read-out: cAMP Rel EC50, hGcgR. The class given is cell-based.
Sequence of human GcgR (P47871 26-477): as above
[6] abbreviates: in the presence of 0.1% casein (no HSA), geometric mean.
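Throughout, for Relative cAMP EC50, hGIPR: intracellular cAMP rise after 30 min at 37 °C read by HTRF against a standard curve, scaled between buffer alone (0%) and top control ligand concentration (100%), four-parameter fit.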
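Throughout, for Relative cAMP EC50, hGLP-1R: intracellular cAMP rise after 30 min at 37 °C read by HTRF, normalized between buffer only (0%) and maximal control ligand (100%), four-parameter variable-slope fit.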
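Throughout, for Relative cAMP EC50, hGcgR: intracellular cAMP rise after 30 min at 37 °C, read by HTRF against a cAMP standard curve, scaled from buffer only (0%) to maximal control ligand response (100%).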

Description for hGcgR: After a 30-minute incubation at 37° C., the resulting increase in intracellular cAMP is quantitatively determined using the CisBio CAMP Dynamic 2 HTRF Assay Kit (62AM4PEJ). Briefly, cAMP levels within the cell are detected by adding the cAMP-d2 conjugate in cell lysis buffer followed by the antibody anti-cAMP-Eu^3+-Cryptate, also in cell lysis buffer.
Intracellular cAMP levels are determined by extrapolation using a standard curve. Dose response curves of compounds are plotted as the percentage of stimulation normalized to minimum (buffer only) and maximum (maximum concentration of each control ligand) values and analyzed using a four parameter non-linear regression fit with a variable slope (Genedata Screener 13). EC50 is the concentration of compound causing half-maximal simulation in a dose response curve. Each relative EC50 value for the Geometric mean calculation is determined from a curve fitting.

`CC[C@H](C)[C@H](NC(=O)[C@H](Cc1ccccc1)NC(=O)[C@H](CCCN)NC(=O)C(C)(C)NC(=O)[C@H](CCC(N)=O)NC(=O)[C@H](C)NC(=O)[C@H](CCCCNC(=O)[C@@H](CCC(=O)O)NC(=O)CC[C@H](NC(=O)CCCCCCCCCCCCCCCCC(=O)O)C(=O)O)NC(=O)[C@H](CCCN)NC(=O)[C@H](CC(=O)O)NC(=O)[C@H](CC(C)C)NC(=O)[C@](C)(CC(C)C)NC(=O)[C@@H](NC(=O)[C@](C)(CO)NC(=O)[C@H](Cc1ccncc1)NC(=O)[C@H](CC(=O)O)NC(=O)[C@H](CO)NC(=O)[C@@H](NC(=O)[C@](C)(Cc1ccccc1F)NC(=O)[C@@H](NC(=O)CNC(=O)[C@H](CCC(N)=O)NC(=O)C(C)(C)NC(=O)[C@@H](N)Cc1ccc(O)cc1)[C@@H](C)O)[C@@H](C)O)[C@@H](C)CC)C(=O)N[C@H](CCC(=O)O)C(=O)N[C@@](C)(Cc1ccc(O)cc1)C(=O)N[C@@H](CC(C)C)C(=O)N[C@@H](CCC(N)=O)C(=O)N[C@@H](CCC(=O)O)C(=O)NCC(=O)NCC(=O)N1CCC[C@H]1C(=O)N[C@@H](CO)C(=O)N[C@@H](CO)C(=O)NCC(=O)N[C@@H](CCC(=O)O)C(=O)N1CCC[C@H]1C(=O)N1CCC[C@H]1C(=O)N1CCC[C@H]1C(=O)N[C@@H](CCC(=O)O)C(=O)NCC(=O)N[C@H](C(=O)N[C@@H](CCC(=O)O)C(=O)N[C@@H](CCC(=O)O)C(N)=O)[C@@H](C)O` [Example 595]: the EC50 at hGIPR [1] was determined as 0.0338 nM; on hGLP-1R [2], 30.4 nM; at hGLP-1R [3] it was 0.53 nM; at hGIPR [5], 1.73 nM; on hGcgR it was 5.06 nM; at human GcgR, 353 nM. Also, in series [4], the “Relative Papp (Compared to internal standard)” value (shortened to “Relative Papp”) is listed as 0.55.

Turning to “H-Y[Aib]QGT[αMePhe(2-F)]TSD[4Pal][αMeS]I[αMeL]LD[Orn]K([AEEA-γGlu-C18 diacid])AQ[αMe4Pal]EFI[dE][αMeY]LIEGGPSSGEPPPSGS-NH2 [Example 710]”, the EC50 at hGIPR [1] turned out to be 0.00578 nM; on hGLP-1R [2], 28.7 nM; at hGLP-1R [3] it was 0.274 nM; on hGIPR [5], 0.589 nM; on hGcgR, 1.52 nM; at human GcgR, 126 nM. Moreover, the “Relative Papp” value in series [4] is 0.35.

In the case of `CC[C@H](C)[C@H](NC(=O)[C@H](Cc1ccccc1)NC(=O)[C@H](C)NC(=O)C(C)(C)NC(=O)[C@H](CCC(N)=O)NC(=O)[C@H](C)NC(=O)[C@H](CCCCNC(=O)COCCOCCNC(=O)CC[C@H](NC(=O)CCCCCCCCCCCCCCCCC(=O)O)C(=O)O)NC(=O)[C@H](CCCCN)NC(=O)[C@H](CC(=O)O)NC(=O)[C@H](CC(C)C)NC(=O)[C@](C)(CC(C)C)NC(=O)[C@H](CCCN)NC(=O)[C@H](CO)NC(=O)[C@H](Cc1ccccc1)NC(=O)[C@H](CC(=O)O)NC(=O)[C@H](CO)NC(=O)[C@@H](NC(=O)[C@H](Cc1ccccc1)NC(=O)[C@@H](NC(=O)CNC(=O)[C@H](CCC(N)=O)NC(=O)C(C)(C)NC(=O)[C@@H](N)Cc1ccc(O)cc1)[C@@H](C)O)[C@@H](C)O)C(=O)N[C@@H](CCC(=O)O)C(=O)N[C@@H](Cc1ccc(O)cc1)C(=O)N[C@@H](CC(C)C)C(=O)N[C@@H](CC(C)C)C(=O)N[C@@H](CCC(=O)O)C(=O)N[C@H](C)C(=O)NCC(=O)N1CCC[C@H]1C(=O)N[C@@H](CO)C(=O)N[C@@H](CO)C(=O)NCC(=O)N[C@@H](C)C(=O)N1CCC[C@H]1C(=O)N1CCC[C@H]1C(=O)N1CCC[C@H]1C(=O)N[C@@H](CO)C(=O)NCC(=O)N[C@H](C(=O)O)[C@@H](C)O` [Example 213], in series [4], the “Relative Papp” value is 0.26.

Turning to “H-Y[Aib]QGTFTSD[4Pal]SQ[αMeL]LD[Orn]K([Glu-γGlu-C18 diacid])AQ[αMe4Pal]AFIEYLIAGGPSSGAPPPSGSEE-NH2 [Example 1033]”, the “Relative Papp” value in series [4] was 0.14.

For the compound “H-Y[Aib]QGT[αMePhe(2-F)]TSD[4Pal]SILLDKK([γGlu-γGlu-C18 diacid])AQ[Aib]AFIE[αMeY]LEEGGPSSGAPPPSGSGE-NH2 [Example 666]”, the EC50 at hGIPR [1] was determined as 0.0203 nM; at hGLP-1R [2], 32.3 nM; at hGLP-1R [3], 0.337 nM; on hGIPR [5] it was 1.39 nM; at hGcgR, 2 nM; at human GcgR, 224 nM. Also, the “Relative Papp” value in series [4] was determined as 0.85.

Regarding “H-Y[Aib]QGT[αMePhe(2-F)]TSD[4Pal]SILLD[Orn]K([AEEA-γGlu-C18 diacid])AQ[αMe4Pal]EFI[dE][αMeY]LLEGGPSSGAPPPSGS-NH2 (C-terminus assumed) [Example 670]”, the “Relative Papp” value in series [4] was 0.46.

On to “H-Y[Aib]QGT[αMePhe(2-F)]TSD[4Pal][αMeS]I[αMeL]LD[Orn]K([γGlu-γGlu-C18 diacid])AQ[αMe4Pal]EFI[dE][αMeY]LVEGGPSSGEPPPSGS-NH2 [Example 737]”, for which the concentration for a half-maximal effect (EC50) on hGIPR [1] came to 0.00804 nM; on hGLP-1R [2], 22.3 nM; on hGLP-1R [3], 0.285 nM; on hGIPR [5], 0.498 nM; at hGcgR, 1.34 nM; at human GcgR, 122 nM. Moreover, the “Relative Papp” value in series [4] is 0.69.

“H-Y[Aib]QGTFTSDFS[Orn][αMeL]LDKK([γGlu-γGlu-C18 diacid])AQ[Aib]AFIEYLLEGGPSSGAPPPGGS-NH2 [Example 198]”: the EC50 on hGIPR [1] (setting [6]) amounted to 0.182 nM; on hGLP-1R [2], 761 nM; on hGLP-1R [3] (setting [6]), 4.36 nM; at hGIPR [5], 38.8 nM; at hGcgR (setting [6]) it was 6.85 nM; at human GcgR it was 1300 nM. Moreover, the “Relative Papp” value in series [4] is 0.12.

Turning to “H-Y[Aib]QGT[αMePhe(2-F)]TSD[4Pal][αMeS]I[αMeL]LD[Orn]K([γGlu-γGlu-C18 diacid])AQ[αMe4Pal]EFI[dE][αMeY]LIEGGPSSGAPPPEGGGE-NH2 [Example 761]”, the EC50 on hGIPR [1] came out at 0.00686 nM; at hGLP-1R [2], 26.1 nM; at hGLP-1R [3], 0.226 nM; at hGIPR [5] it was 0.635 nM; on hGcgR, 1.5 nM; at human GcgR it was 162 nM. The “Relative Papp” value in series [4] is on record as 0.53.

Take `CC[C@H](C)[C@H](NC(=O)[C@H](Cc1ccccc1)NC(=O)[C@H](C)NC(=O)C(C)(C)NC(=O)[C@H](CCC(N)=O)NC(=O)[C@H](C)NC(=O)[C@H](CCCCNC(=O)COCCOCCNC(=O)CC[C@H](NC(=O)CCCCCCCCCCCCCCCCC(=O)O)C(=O)O)NC(=O)[C@H](CCCCN)NC(=O)[C@H](CC(=O)O)NC(=O)[C@H](CC(C)C)NC(=O)[C@](C)(CC(C)C)NC(=O)[C@H](CCCN)NC(=O)[C@H](CO)NC(=O)[C@H](Cc1ccccc1)NC(=O)[C@H](CC(=O)O)NC(=O)[C@H](CO)NC(=O)[C@@H](NC(=O)[C@H](Cc1ccccc1)NC(=O)[C@@H](NC(=O)CNC(=O)[C@H](CCC(N)=O)NC(=O)C(C)(C)NC(=O)[C@@H](N)Cc1ccc(O)cc1)[C@@H](C)O)[C@@H](C)O)C(=O)N[C@@H](CCC(=O)O)C(=O)N[C@@H](Cc1c[nH]c2ccccc12)C(=O)N[C@@H](CC(C)C)C(=O)N[C@@H](CC(C)C)C(=O)N[C@@H](CCC(=O)O)C(=O)NCC(=O)NCC(=O)N1CCC[C@H]1C(=O)N[C@@H](CO)C(=O)N[C@@H](CO)C(=O)NCC(=O)N[C@@H](C)C(=O)N1CCC[C@H]1C(=O)N1C[C@H](O)C[C@H]1C(=O)N1CCC[C@H]1C(=O)N[C@@H](CO)C(=O)NCC(=O)N[C@@H](CCC(=O)O)C(N)=O` [Example 137]: the “Relative Papp” value in series [4] is on record as 0.04.
